Results taken from patent US9072729B2, “Method for treating fibrosis and cancer with imidazolium and imidazolinium compounds” (Agency for Science, Technology and Research, priority 2008, dated 2015).

Legend:
Assay type in all cases: cell-based, rat
[1] = system: GPx; experiment: Glutathione peroxidase (GPx) activity assay in treated cells
Description: (§1) FIG. 4. Effect of DBZIM and TDBZIM on GPx, CAT, SOD and GST. DBZIM affected (a) GPx activity and (c) CAT activity in a dosage-dependent manner. TDBZIM suppressed (b) GPx activity and (d) CAT activity. (e) DBZIM and (f) TDBZIM had little effect on SOD activity. (g) DBZIM induced GST activity. HSC T6 cells were treated with compounds of various concentrations for 48 h, and homogenized by sonication (60% frequency for 30 s) in PBS (pH 7.4, 1 mM of EDTA) for GPx, GST and CAT assays, or in 20 mM of HEPES buffer containing 1 mM of EGTA, 210 mM of mannitol and 70 mM of sucrose (pH 7.2) for SOD assay. Enzyme activity was normalized against total protein. DBZIM was dissolved in DMSO, and TDBZIM was dissolved in H2O. The data were presented as mean and SEM, N=6, *^aP<0.05, *^bP<0.01, *^cP<0.005, and *^dP<0.0005, when compared to the vehicle control.
(§2) Activity levels of three anti-oxidant enzymes, GPx, CAT and SOD, were determined using assay kits from Cayman Chemical. To assay GPx and CAT activities, protein samples were harvested in ice-cold PBS containing 1 mM of EDTA. To assay SOD activity, protein samples were prepared in 20 mM of N-(2-hydroxyethyl)-piperazine-N′-2-ethanesulfonic acid (HEPES) buffer containing 1 mM of ethylene glycol-bis(2-aminoethylether)-N,N,N′,N′-tetraacetic acid (EGTA), 210 mM of mannitol and 70 mM of sucrose. Protein content was determined by BCA assay.
GPx activity was indirectly measured by a coupled reaction with GSH reductase. Oxidized GSH, produced upon reduction of H2O2 by GPx, is recycled to its reduced state by glutathione reductase (GR) and nicotinamide adenine dinucleotide phosphate (NADPH). The oxidation of NAPDH is proportional to the GPx activity, and can be measured as a decrease in absorbance at 340 nm. GPx activity was expressed as nmol/min/mg protein.

[2] = system: HSC-T6 cells; experiment: Cellular ROS determination (DCF labeling); conditions: 48 h
Description: FIG. 2. (a) DBZIM and (b) TDBZIM attenuated cellular ROS level. HSC T6 cells were incubated with DBZIM (10, 50, 100 and 300 μM), TDBZIM (10, 50 and 100 μM), NAC (1 mM) and EGCG (25 μM) for 48 h before assaying for cellular ROS levels. The data were presented as relative values after normalizing against a vehicle control. The data were presented as mean and SEM, N=6, *^bP<0.01, *^cP<0.005, and *^dP<0.0005 when compared to the vehicle, control.
The ROS level of treated HSC-T6 cells was determined using the dichlorofluorescein (DCF) labeling method (Molecular Probes Inc., OR, USA). Cultured cells were harvested by trypsinization, and resuspended in phenol red-free DMEM (Invitrogen). Cells were then incubated with 10 μg/ml of 2′,7′-dichloro-fluorescein diacetate (DCFH-DA) in DMEM for 15 min before resuspension in DMEM for assaying. Cell solution was dispensed into a black-wall 96-well pate in triplicate for fluorescence readout at Ex=485 nm and Em=530 nm with a Tecan Safire II plate reader. The fluorescence unit was normalized against viable cell numbers, which were determined using 3-(4,5-dimethylthiazol-2-yl)-2,5-diphenyl tetrazolium bromide (MTT assay, Promega, Wis., USA). Cellular ROS level was expressed relative to the control sample.

[3] = system: SOD; experiment: Superoxide dismutase (SOD) activity assay in treated cells; conditions: HSC T6 cells, 48 h
Description: as §1, §2
Total SOD, including all three types of SOD (Cu/Zn-, Mn- and Fe-SOD), was quantified using a tetrazolium salt to detect superoxide radicals generated by xanthine oxidase and hyposanthine. […] SOD activity was expressed as U/mg protein.

[4] = system: fibronectin; experiment: Real-time RT-PCR of fibronectin mRNA in HSC T6 cells; conditions: for suppression of fibronectin mRNA: DPIM 2 mM, TMPHIM 50 μM, DBZIM 100 μM
Description: (§3) FIG. 6. (a) DBZIM and (b) TDBZIM suppressed the mRNA expression of HSC activation markers (GFAP and SMAA) and fibrotic endpoints (col1a1 and fibronectin) in a dosage-dependent manner. […] The ΔΔCt method was used for relative quantification with vehicle control sample being the calibrator. The data were presented as mean and SEM, N=6, *^aP<0.05, *^bP<0.01, *^cP<0.005, and *^dP<0.0005, when compared to the vehicle control. FIG. 7. DBZIM (100 μM) and TDBZIM (100 μM) suppressed (a) GFAP, (b) SMAA, (c) col1a1 and (d) fibronectin mRNA expression in a time-dependent manner. HSC T6 cells were treated with DBZIM and TDBZIM, and assayed after 8, 24 and 48 h. […] FIG. 14. […] (50 μM), […] (50 μM), […] (10 μM) and DBZBIM (100 μM) were dissolved in DMSO with a final DMSO concentration of 0.2% (v/v). DPIM (2 mM), EGCG (25 μM) and DBZIM (100 μM) were dissolved in H2O. β-actin was used as the normalization gene; its expression was constant under the experimental conditions. Relative quantification was normalized against the respective vehicle control. The data were presented as mean and SEM, N=6, *^aP<0.05, *^cP<0.005, and *^dP<0.0005, when compared to the vehicle control. Total RNA was isolated using NucleoSpin RNAII isolation kit ([…], Germany), and quantified by ND-100 spectrophotometer (Nanodrop Technologies, DE, USA). The details of real-time RT-PCR were reported elsewhere (Zhang et al. 2006). Briefly, it was a two-step real-time RT-PCR using Taqman chemistry. Total RNA was first reverse transcribed to cDNA, and real-time PCR was run and detected in ABI 7500 Fast Real-Time PCR System (Applied Biosystems, CA, USA). Primers and probes for rat GFAP, SMAA, collagen Ia1, fibronectin, TGF-β1, TGF-β receptor I (TGFβ RI) and IL-6 were ordered from Taqman's assay-on-demand database. Rat β-actin was used as normalization gene, and its expression level was constant (CT difference was <±0.5) throughout the experimental settings in this study. Relative quantification of target mRNA was calculated using comparative threshold cycle method (ΔΔCT) as described in User Bulletin #2 (ABI Prism 7700 Sequence Detection System). Relative quantification was given by 2^-ΔΔCT to express the up-regulation or down regulation of the target gene under the treatments compared to the control.

[5] = system: col1a1; experiment: Real-time RT-PCR of col1a1 mRNA in HSC T6 cells
Description: as §3

| Compound | effect on SOD activity [3] | suppression of fibronectin mRNA ([4]; 48 h) | attenuation of GPx activity ([1]; 10 μM, 48 h) | attenuation of GPx activity ([1]; 50 μM, 48 h) | decrease of fibronectin mRNA ([4]; 1 μM, 48 h) | decrease of fibronectin mRNA ([4]; 100 μM, 8 h) | decrease of fibronectin mRNA ([4]; 100 μM, 24 h) | decrease of fibronectin mRNA ([4]; 100 μM, 48 h) | decrease of col1a1 mRNA ([5]; 100 μM, 8 h) | decrease of col1a1 mRNA ([5]; 100 μM, 24 h) | decrease of col1a1 mRNA ([5]; 100 μM, 48 h) | other results |
| --- | --- | --- | --- | --- | --- | --- | --- | --- | --- | --- | --- | --- |
| (−)-Epigallocatechin gallate [EGCG, reference compound] | did not show much effect | – | – | – | – | – | – | – | – | – | – | attenuation of GPx activity (references) ([1]; EGCG 25 μM, NAC 5 mM): 53%; attenuation of cellular ROS level (references) ([2]; EGCG 25 μM, NAC 1 mM): 14% |
| CC(C)n1cc[n+](C(C)C)c1.F[B-](F)(F)F [DPIM, 1,3-diisopropylimidazolium tetrafluoroborate] | – | 48% | – | – | – | – | – | – | – | – | – | suppression of col1a1 mRNA ([5]; 48 h, DBIM 1 mM, DPIM 2 mM, TMPHIM 50 μM, DPPHIM 10 μM): 61% |
| 1,3,5-tris(4-methyl-imidazolium)-linked cyclophane.3Br [TDBZIM] | did not show much effect | – | 18% | 25% | 32% | 25% | 29% | 43% | 22% | 40% | 53% | attenuation of GPx activity ([1]; 100 μM, 48 h): 34%; suppression of cellular ROS level ([2]; 10 μM): 19%; suppression of cellular ROS level ([2]; 100 μM): 36%; decrease of fibronectin mRNA ([4]; 10 μM, 48 h): 28%; decrease of col1a1 mRNA ([5]; 1 μM, 48 h): 39%; decrease of col1a1 mRNA ([5]; 10 μM, 48 h): 36% |
| [Br-].c1ccc(Cn2cc[n+](Cc3ccccc3)c2)cc1 [DBZIM, 1,3-bisbenzylimidazolium bromide] | did not show much effect | 26% | 10% | 10% | 19% | 15% | 17% | 25% | 22% | 29% | 21% | enhancement of GPx activity ([1]; 300 μM, 48 h): 15%; suppression of cellular ROS level ([2]; 50 μM): 25%; suppression of cellular ROS level ([2]; 300 μM): 34%; decrease of fibronectin mRNA ([4]; 300 μM, 48 h): 40%; decrease of col1a1 mRNA ([5]; 300 μM, 48 h): 44% |
